Laboratory results from US11231410B2, “Method for identifying a compound useful in mitigating and/or the treatment of a disease associated with abnormal astrocytic function” (Celica BIOMEDICAL, priority 2015, dated 2022).
Read-outs that look alike come from different tables or passages of the source.

Tests used:
GPR81 [1] = molecular target: T1, GPR81 (Rattus norvegicus, UniProt B9UM24); assay: FRET nano-sensor (Epac1-camps / AKAR2) measurement of cytosolic cAMP in single cultured astrocytes, GPR81 ligands; assay type: cell-based; conditions: for n decrease (cells with cAMP decrease): number of astrocytes responding with cAMP decrease; for n increase (cells with cAMP increase): number of astrocytes responding with cAMP increase; for n unresponsive (cells): number of unresponsive astrocytes; for % decrease (cells with cAMP decrease) / % increase (cells with cAMP increase) / % unresponsive (cells): share of all astrocytes tested; for responsiveness of cells (cAMP): compared with the high affinity molecule 3cl5hi
T1 construct: endogenous in cells; host or cells: cultured primary rat astrocytes transfected only with the cAMP sensors Epac1-camps or AKAR2
T1 sequence (B9UM24 1-351): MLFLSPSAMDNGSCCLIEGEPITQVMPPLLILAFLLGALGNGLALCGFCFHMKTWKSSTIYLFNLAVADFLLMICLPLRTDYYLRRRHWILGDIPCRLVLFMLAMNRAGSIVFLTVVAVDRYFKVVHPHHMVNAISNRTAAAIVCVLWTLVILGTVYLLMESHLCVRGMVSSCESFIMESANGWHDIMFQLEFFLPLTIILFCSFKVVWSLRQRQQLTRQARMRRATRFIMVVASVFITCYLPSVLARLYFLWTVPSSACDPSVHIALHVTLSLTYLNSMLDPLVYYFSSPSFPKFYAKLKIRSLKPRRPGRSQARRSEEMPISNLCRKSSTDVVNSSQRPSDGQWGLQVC
Source text: (§1) As described in the previous European Patent Application No. 13 173 446, the cAMP level may, be determined by fluorescence nano-sensors in the astrocyte. In particular, the cAMP level may be determined by expressing the plasmid for FRET construct Epac1-camps or AKAR2. FRET signal is reported as the ratio of YFP to CFP fluorescence signal. The change in FRET signals reflects change in [cAMP]i. The inventions comprises of using MD and cAMP measurements.
(§2) As described in the previous European Patent Application No. 13 173 446, the cAMP level may, for instance, be determined by fluorescence nano-sensors in the astrocyte. In particular, the cAMP level may be determined by expressing the plasmid for FRET construct Epac1-camps or AKAR2. FRET construct are examined with immersion objective for fluorescent light and confocal microscope or other fluorescent microscope. Cells were excited at 458 nm or other suitable excitation wavelength of light and images are acquired every time interval. Emission spectra are collected from spectral detector or other suitable wavelength of light. Two-channel (CFP and YFP) images are generated from light detector. YFP and CFP fluorescence intensities are quantified within a region of interest selected for individual cell expressing Epac1-camps or AKAR2 using software. FRET signal is reported as the ratio of YFP to CFP fluorescence signal after subtracting the background fluorescence from both YFP and CFP signals. The change in FRET signals reflects change in [cAMP]i.
(§3) Cultured astrocytes, e.g. isolated as previously described by Schwartz & Wilson (Glia. 1992; 5(1):75-80) or any other cell type isolated from animal tissues or clonal cell lines derived from human or animal sources are seeded onto coverslips and maintained in an adequate cell cultured medium. All chemicals were from Sigma Aldrich (St. Louis, Mo., USA) unless otherwise noted.
(§4) Astrocytes expressing Epac1-camps or AKAR2 FRET construct were examined with a Plan NeoFluoar 40×/1.3 Oil DIC immersion objective (Carl Zeiss, Jena, Germany) and 2-fold zoom factor using Zeiss LSM510 META confocal microscope (Carl Zeiss, Jena, Germany). Cells were excited at 458 nm and images (512×512) were acquired every 3.5 s or 7 s using Lambda stack acquisition. Emission spectra were collected from META detector in eight channels (lambda stack) ranging from 470 nm to 545 nm, each with a 10.7-nm width. Two-channel (CFP and YFP) images were generated from lambda stacks by analytical software “Extract channels”. Channels with emission spectra 470- and 481-nm and emission spectra 513-, 524-, and 534-nm were extracted to CFP channel and YFP channel, respectively. YFP and CFP fluorescence intensities were quantified within a region of interest selected for individual cell expressing Epac1-camps or AKAR2 using LSM 510 META software. In the graphs, FRET signal is reported as the ratio of YFP to CFP fluorescence signal after subtracting the background fluorescence from both YFP and CFP signals using Sigma Plot.
(§5) The values of FRET signals were normalized (set to 1.0) at the onset of the experiments and averaged. The decrease in FRET signals in Epac1-camps experiments reflects an increase in [cAMP]i and the increase in FRET signals in AKAR2 experiments reflects increase in [cAMP]i.
(§6) Initially, astrocytes were kept in standard extracellular solution (10 mM Hepes/NaOH, pH 7.2, 10 mM D-glucose, 131.8 mM NaCl, 1.8 mM CaCl2, 2 mM MgCl2, and 5 mM KCl) and then treated with various reagents following a 100 s baseline.

human HCAR1 (GPR81) = human HCAR1 (GPR81) (Homo sapiens, UniProt Q9BXC0); conditions: cited from earlier work; for EC50 (in words): Dvorak et al. 2012, qualitative statement; for agonist activity at GPR81: Dvorak et al. 2012; for EC50: receptor activation, value from Dvorak et al. 2012
GPR81 [2] = molecular target: T1, GPR81; conditions: from European Patent Application No. 13 173 446, cited from earlier work
Adrener. = assay: FRET nano-sensor measurement of cytosolic cAMP in single cultured astrocytes, adrenergic stimulus; assay type: cell-based, rat
Source text: as §1, §2, §3, §4, §5, §6

human HCA1 = human HCA1 (Homo sapiens, UniProt Q9BXC0); conditions: compared versus HCA2, Liu et al. 2012; cited from earlier work
Sequence of human HCA1 (Q9BXC0 whole entry): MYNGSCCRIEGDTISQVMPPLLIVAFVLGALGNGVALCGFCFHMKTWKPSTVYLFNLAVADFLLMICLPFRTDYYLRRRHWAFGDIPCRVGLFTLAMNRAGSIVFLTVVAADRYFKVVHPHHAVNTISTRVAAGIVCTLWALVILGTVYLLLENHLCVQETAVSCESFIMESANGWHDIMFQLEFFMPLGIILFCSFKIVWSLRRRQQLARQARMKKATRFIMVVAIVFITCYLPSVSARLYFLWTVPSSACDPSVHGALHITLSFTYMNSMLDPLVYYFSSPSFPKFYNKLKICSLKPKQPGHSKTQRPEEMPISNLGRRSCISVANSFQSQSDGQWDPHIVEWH

Sequence of human HCAR1 (GPR81) (Q9BXC0 whole entry): as above

Molecule	n decrease (cells with cAMP decrease) (GPR81 [1])	n increase (cells with cAMP increase) (GPR81 [1])	n unresponsive (cells) (GPR81 [1])	% decrease (cells with cAMP decrease) (GPR81 [1])	% increase (cells with cAMP increase) (GPR81 [1])	% unresponsive (cells) (GPR81 [1]) [%]	EC50 (in words) (human HCAR1 (GPR81))	also measured
O=C(O)c1cc(O)cc(Cl)c1 [Ligand 3cl5hi, 3-chloro-5-hydroxybenzoic acid, reference compound]	0 (0%)	21	14	0 (0%)	(60%)	40	relatively low EC50	agonist activity at GPR81 (human HCAR1 (GPR81)): agonists; intracellular cAMP levels in astrocytes (FRET ratio YFP/CFP) (GPR81 [2]; 500 μM 3-Cl-5-HBA, AKAR2 sensor, FIG. 9d): increases intracellular cAMP levels
O=C(O)c1cc(O)cc(F)c1 [Ligand 3f5hi, 3-fluoro-5-hydroxybenzoic acid, reference compound]							relatively low EC50	agonist activity at GPR81 (human HCAR1 (GPR81)): agonists
NC[C@H](O)c1ccc(O)c(O)c1 [Norepinephrine]								n decrease (cells with cAMP decrease) (Adrener.; number of astrocytes responding with cAMP decrease): 0 (0%); n increase (cells with cAMP increase) (Adrener.; number of astrocytes responding with cAMP increase): 11; n unresponsive (cells) (Adrener.; number of unresponsive astrocytes): 3; % decrease (cells with cAMP decrease) (Adrener.; share of all astrocytes tested): 0 (0%); % increase (cells with cAMP increase) (Adrener.; share of all astrocytes tested): (79%); % unresponsive (cells) (Adrener.; share of all astrocytes tested): 21%
CC(C)(C)c1cc(O)cc(C(=O)O)c1 [but, 3-tertbutyl-5-hydroxybenzoic acid]	4	29	6	10%	(75%)	15	relatively high EC50	responsiveness of cells (cAMP) (GPR81 [1]): responded much better; EC50 (human HCAR1 (GPR81)): > 1000 µM
COc1cc(O)cc(C(=O)O)c1 [metoxi, 3-methoxy-5-hydroxybenzoic acid]	3	34	15	6%	(65%)	29	relatively high EC50	responsiveness of cells (cAMP) (GPR81 [1]): responded much better; EC50 (human HCAR1 (GPR81)): > 1000 µM
O=C(O)c1cc(O)cc(O)c1 [oh, 3,5-dihydroxybenzoic acid]								selectivity for human HCA1 (human HCA1): selective agonist
O=C(O)c1cc(O)cc(-c2ccccc2)c1 [ph, 3-phenyl-5-hydroxybenzoic acid]							relatively high EC50	
Lactic acid/lactate [lakta]								intracellular cAMP levels in astrocytes (FRET ratio YFP/CFP) (GPR81 [2]; 20 mM lactate, Epac1-camps and AKAR2 sensors, FIG. 9b-c): increases intracellular cAMP levels
